Legend:
[1] = system: pacing-induced atrial fibrillation; experiment: Antiarrhythmic action: pacing-induced transient atrial fibrillation; type: in vivo, mouse; settings: vidarabine 15 mg/kg/day, V2E, V3E, V5E 19.8 mg/kg/day, osmotic mini-pump; vs DMSO alone
Experimental: FIG. 14 Antiarrhythmic (atrial fibrillation inhibition) action. To healthy wild type mice (C57BL/6N), vidarabine (15 mg/kg/day), V2E, V3E or V5E (19.8 mg/kg/day) (all of which are dissolved in DMSO) or DMSO alone was administered with an osmotic mini-pump (Alzet 2001). Subsequently, voltage stimuli of 2.5 mA were applied to the mice for 60 seconds at intervals of 30 milliseconds with a transesophageal catheter (atrial tachypacing; Circ Res 97, 62-69, 2005) to induce transient atrial fibrillation. The duration of atrial fibration until the induced transient atrial fibrillation converted to a normal sinus rhythm was measured (n=4-8, means±SE).
After mice were inhalationally anesthetized with isoflurane, an electrode catheter (Millar: Model EPR800; size 1.1 F; length 4.5 cm) connected to an electrocardiogram amp for the purpose of recording intracardiac electrocardiogram was slowly inserted through the oral cavity into the esophagus, and fixed at a site where maximum P wave was recorded. The thus fixed electrode catheter was connected to an electrostimulator carefully enough to avoid any movement of its position. Thereafter, body surface electrogram was recorded by II lead. Subsequently, voltage stimuli of 2.5 mA were applied to mice for 60 seconds at intervals of 30 milliseconds to thereby induce transient atrial fibrillation. The time period during which the following phenomena can be confirmed from body surface electrogram was regarded as the duration of atrial P wave disappears from the baseline and the R-R intervals are not regular but produce arrhythmic pulse.
To healthy WT (C57BL/6N), each of vidarabine (15 mg/kg/day), V2E, V3E and V5E (19.8 mg/kg/day) (all of which were dissolved in DMSO) or DMSO alone was administered with an osmotic mini-pump (Alzet 2001). Subsequently, atrial fibrillation was induced under the above-described conditions, and the duration of atrial fibrillation until the induced atrial fibrillation converted to a normal sinus rhythm was measured (FIG. 14). This experiment was completed after confirming that the normal sinus rhythm was lasting for at least 5 minutes and that there was no recurrence of atrial fibrillation. For information, the maximum dose of vidarabine approved for use in the treatment of herpes in humans is 15 mg/kg/day for 10 days.

[2] = system: rat embryo cultured cardiac myocytes; experiment: TUNEL staining of cardiac myocytes (isoproterenol-induced apoptosis); type: cell-based; settings: 10^−5 M compound with isoproterenol 10^−5 M, 48 hours
Experimental: FIG. 10 TUNEL staining of cardiac myocytes. To a culture both of neonatal rat cardiac myocytes, isoproterenol (10^−5 M) either alone or in combination with vidarabine, V2E, V3E or VSE was added for stimulation (48 hours). Then, apoptosis positive cells were evaluated by TUNEL staining.
<TUNEL Staining of Cardiac Myocytes>
A culture broth of rat embryo cultured cardiac myocytes (pregnant Wistar rats were purchased from Nippon SLC) was stimulated (48 hours) with isoproterenol (10^−5 M) either alone or in combination with vidarabine, V2E, V3E or V5E (10^−5 M). Then, apoptosis positive cells were evaluated by TUNEL staining.

H9c2 cells = experiment: cAMP accumulation assay in H9c2 cells, forskolin stimulation; type: cell-based, rat; settings: 50 μM compound, 100 μM forskolin, n=1, preliminary
Experimental: […] <H9c2 Cultured Cells> […] No. D6429) in the presence of 95% air+5% CO2 at 37° C. 80-90% confluent H9c2 cells were suspended in 10% FBS-containing DMEM. The cell suspension (500 μl) was added to each well of 24-well plates to give a density of 40,000 cells/well, and incubated overnight at 37° C. Subsequently, cells were incubated in serum-free DMEM (500 μl/well) for 48 hours and subjected to cAMP accumulation assay. <cAMP Accumulation Assay> H9c2 cells were incubated in the presence of 500 μM IBMX for 20 minutes at 37° C. Then, various vidarabine derivatives were added to the culture broth to give a concentration of 50 μM. Cells were further incubated for 10 minutes at 37° C. […] Cells were further incubated at 4° C. overnight. Similar experiments were also carried out on rat adult cultured cardiac myocytes under stimulation with various vidarabine derivatives (10 μM) and forskolin (5 μM). In both membrane adenylyl cyclase assay and cAMP accumulation assay, the amount of cAMP contained in TCA solution was determined by radioimmunoassay using […].

[3] = system: cardiac function (LVEF) of isoproterenol-loaded mice; experiment: Chronic catecholamine loading experiment (isoproterenol heart failure model); type: in vivo, mouse; settings: 15 mg/kg/day for 7 days, osmotic mini-pump, with isoproterenol 60 mg/kg/day; C57BL/6N
Experimental: FIG. 9 Prophylactic effects on heart failure. Isoproterenol alone (60 mg/kg/day for 7 days) was administered to wild-type mice (C57BL/6N) for one week with an osmotic mini-pump (Alzet2001) (ISO). Other WT received isoproterenol with vidarabine, V2E, V3E or V5E (15 mg/kg/day for 7 days).
<Chronic Catecholamine Loading Experiment>
An osmotic mini-pump filled with isoproterenol was hypodermically implanted in mice, and isoproterenol was administered for 1 week continuously in a sustained-release manner (60 mg/kg). The cardiac function of mice (EF, ejection fraction) was measured by cardiac ultrasonography, and values before and after isoproterenol administration were compared. It is generally known that when isoproterenol is administered to mice with a mini-pump, their cardiac function (EF) decreases (i.e., they manifest heart failure).
Isoproterenol alone (60 mg/kg/day for 7 days) was administered to WT (C57BL/6N) for 1 week with an osmotic mini-pump (Alzet 2001). Other WT received isoproterenol and, at the same time, vidarabine, V2E, V3E or V5E (15 mg/kg/day for 7 days).

[4] = Toxicity test (blood BUN, creatinine, GPT, GOT); type: in vivo, mouse; settings: 15 mg/kg/day for 7 days, osmotic mini-pump
Experimental: FIG. 11 Toxicity test. Vidarabine, V2E, V3E and V5E were administered individually with an osmotic mini-pump (15 mg/kg/day for 7 days). Then, blood samples were taken and subjected to BUN, creatinine, GPT and GOT measurements. The results were compared with the results from a control group.
Vidarabine, V2E, V3E and V5E were administered individually to WT (C57BL/6N; Nippon SLC) with an osmotic mini-pump (15 mg/kg/day for 7 days). Then, blood samples were taken and subjected to BUN, creatinine, OPT and GOT measurements. The results were compared with the results from control group.

| SMILES | time for pacing-induced atrial fibrillation to convert to a normal sinus rhythm [1] | inhibitory effect on isoproterenol stimulation-induced apoptosis (TUNEL positive cells) [2] | level of cAMP accumulated in response to forskolin (relative to control) (H9c2 cells) | inhibition of the isoproterenol-induced decrease of cardiac function (LVEF) [3] | BUN compared with control group [4] | GOT compared with control group [4] | OPT compared with control group [4] | creatinine compared with control group [4] |
| --- | --- | --- | --- | --- | --- | --- | --- | --- |
| CN(C)CC(=O)OC1C(O)C(CO)OC1n1cnc2c(N)ncnc21 (stereo not shown) [V2E, 2-O—(N,N-Dimethylglycyl)Vidarabine] | significantly shortened | comparable to the effect of vidarabine | about 57.1% | comparable to that of vidarabine | No significant increase | No significant increase | No significant increase | No significant increase |
| Nc1ncnc2c1ncn2[C@@H]1O[C@H](CO)[C@@H](O)[C@@H]1O [vidarabine, reference compound] | significantly shortened | – | about 35.1% | significantly inhibited | No significant increase | No significant increase | No significant increase | No significant increase |
| CN(C)CC(=O)OCC1OC(n2cnc3c(N)ncnc32)C(O)C1O (stereo not shown) [V5E, 5-O—(N,N-Dimethylglycyl)Vidarabine] | significantly shortened | comparable to the effect of vidarabine | about 82.5% | comparable to that of vidarabine | No significant increase | No significant increase | No significant increase | No significant increase |
| CN(C)CC(=O)OC1C(CO)OC(n2cnc3c(N)ncnc32)C1O (stereo not shown) [V3E, 3-O—(N,N-Dimethylglycyl)Vidarabine] | significantly shortened | comparable to the effect of vidarabine | about 45.7% | comparable to that of vidarabine | No significant increase | No significant increase | No significant increase | No significant increase |
